In US7825151B2, “Hexahydro-cyclooctyl pyrazole cannabinoid modulators” (priority 2005, dated 2010):
pEC50, pIC50: −log10 of the molar value. Values joined by “and” are separate entries in the source; they are usually repeats but may differ in a detail not shown here. Identical values can stand only once.

Assays:
CB2 receptor [1] = target: T1, CB2 receptor (Homo sapiens, UniProt P34972); assay: Modified functional cell-based assay (Beta-Glo luminescence), CB2 agonist
T1 construct: expressed in transfected cells; host or cells: SK-N-MC cells, stably transfected with pcDNA3 CB-2 (human)
T1 sequence (P34972 whole entry): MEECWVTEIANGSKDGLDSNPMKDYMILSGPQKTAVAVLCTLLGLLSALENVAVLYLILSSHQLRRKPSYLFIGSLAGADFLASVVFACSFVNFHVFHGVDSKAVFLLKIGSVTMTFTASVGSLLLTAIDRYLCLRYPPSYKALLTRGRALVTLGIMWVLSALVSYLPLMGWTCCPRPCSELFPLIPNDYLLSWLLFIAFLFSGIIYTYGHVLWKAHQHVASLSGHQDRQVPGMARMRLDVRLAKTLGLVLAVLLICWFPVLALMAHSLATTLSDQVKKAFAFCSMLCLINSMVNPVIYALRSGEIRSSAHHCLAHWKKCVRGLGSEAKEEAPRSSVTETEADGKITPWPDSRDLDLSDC
Protocol: Additional functional activity studies were performed with minor modifications. Beta galactosidase activity was quantified using the luminescent Beta-Glo Assay System (Promega Corp. Madison, Wis.) and an Orion Microplate Luminometer (Berthold Detection Systems, Oak Ridge, Tenn.). The EC50 values were calculated using GraphPad Prism and a four parameter logistic equation.

CB2 receptor [2] = target: T1, CB2 receptor; assay: Functional cell-based CRE β-gal assay, CB2 (adenylate cyclase activity)
Excerpt: (§1) The CB1 and CB2 receptors are G-protein coupled receptors (GPCR), which influence cell function via the Gi-protein. These receptors modulate the activity of intracellular adenylate cyclase, which in turn produces the intracellular signal messenger cyclic-AMP (cAMP).
(§2) At baseline, or during non-ligand bound conditions, these receptors are constitutively active and tonically suppress adenylate cyclase activity. The binding of an agonist causes further receptor activation and produces additional suppression of adenylate cyclase activity. The binding of an inverse agonist inhibits the constitutive activity of the receptors and results in an increase in adenylate cyclase activity.
(§3) By monitoring intracellular adenylate cyclase activity, the ability of compounds to act as agonists or inverse agonists can be determined.
(§4) Test compounds were evaluated in SK-N-MC cells which, using standard transfection procedures, were stably transfected with human cDNA for pcDNA3-CRE β-gal and pcDNA3 CB1 receptor (human) or pcDNA3 CB2 receptor (human). By expressing CRE β-gal, the cells produced β-galactosidase in response to CRE promoter activation by cAMP. Cells expressing CRE β-gal and either the human CB1 or CB2 receptor will produce less β-galactosidase when treated with a CB1/CB2 agonist and will produce more β-galactosidase when treated with a CB1/CB2 inverse agonist.
(§5) The cells were grown in 96-well plates under standard cell culture conditions at 37° C. in a 5% CO2 atmosphere. After 3 days, the media was removed and a test compound in media (wherein the media was supplemented with 2 mM L-glutamine, […] sodium pyruvate, 0.1% low fatty acid FBS (fetal bovine serum) and antibiotics) was added to the cell. The plates were incubated for 30 minutes at 37° C. and the plate cells were then treated with forskolin over a 4-6 hour period, then washed and lysed. The β-galactosidase activity was quantitated using commercially available kit reagents (Promega Corp. Madison, Wis.) and a Vmax Plate Reader (Molecular Devices, Inc).
For cells expressing CRE β-gal and the CB2 receptor, CB2 agonists reduced β-galactosidase activity in a dose-dependent manner and CB2 inverse agonists increase β-galactosidase activity in a dose-dependent manner.
(§6) The change in β-galactosidase activity was determined by setting a vehicle treated cell's activity value at 100% and expressing the β-galactosidase activity measured in a corresponding compound treated cell as a percent of the vehicle treated cell activity.
The EC50 value for functional activity for compounds tested was calculated by linear regression and was obtained from studies in which varying compound concentrations were used.
The value of 29% for Compound 5 represents change in functional activity and was obtained from a study in which one compound concentration was used.

human CB1 receptor [3] = target: T2, human CB1 receptor (Homo sapiens, UniProt P21554); assay: Binding assay for CB1 ([3H]-CP-55,940 displacement, SK-N-MC membranes); settings: for inhibition at 10 µM: test concentration 10 μM (footnote 1), read-out: CB1 receptor binding percent inhibition
T2 construct: expressed in transfected cells; host or cells: SK-N-MC cells, stably transfected with pcDNA3 CB-1 (human)
T2 sequence (P21554 whole entry): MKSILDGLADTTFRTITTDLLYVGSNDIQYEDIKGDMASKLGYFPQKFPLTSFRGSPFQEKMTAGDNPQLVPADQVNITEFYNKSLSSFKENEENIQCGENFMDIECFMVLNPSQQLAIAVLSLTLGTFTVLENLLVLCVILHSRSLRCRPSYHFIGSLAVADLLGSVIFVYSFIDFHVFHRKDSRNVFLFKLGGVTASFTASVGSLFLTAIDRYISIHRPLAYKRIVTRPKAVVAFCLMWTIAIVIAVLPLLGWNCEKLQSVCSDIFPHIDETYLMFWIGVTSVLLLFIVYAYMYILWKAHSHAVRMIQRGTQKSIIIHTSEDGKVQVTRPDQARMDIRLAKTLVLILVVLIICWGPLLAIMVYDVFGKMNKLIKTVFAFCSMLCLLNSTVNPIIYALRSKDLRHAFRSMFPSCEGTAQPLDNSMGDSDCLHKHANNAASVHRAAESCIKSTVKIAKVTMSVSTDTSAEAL
Protocol: (§7) The human CB1 and CB2 receptors were stably expressed in SK-N-MC cells transfected with pcDNA3 CB-1 (human) or pcDNA3 CB-2 (human). The cells were grown in T-180 cell culture flasks under standard cell culture conditions at 37° C. in a 5% CO2 atmosphere. The cells were harvested by trysinization and homogenized in a homogenization buffer (10 mM Tris, 0.2 mM MgCl2, 5 mM KCl, with protease inhibitors aprotinin, leupeptin, pepstatin A and bacitracin) and centrifuged (2000 g). The supernatant was then centrifuged in 2M sucrose (31,300 g) to produce a semi-purified membrane pellet. The pellet was resuspended in homogenization and stored at −80° C.
(§8) On the day of the assay, the pellet was thawed on ice and diluted in assay buffer (50 mM Tris-HCl, 5 mM MgCl2, 2.5 mM EDTA, 0.5 mg/mL fatty acid free bovine serum albumin, pH 7.5). The diluted membrane pellet was added with buffer, either a test compound or vehicle standard and the radioligand [H]^3+-CP-55,940 (0.2 nM) to the wells of a 96-well polypropylene plate. Non-specific binding was measured in wells containing WIN 55,212 (10 uM). The plate was covered and incubated for 90 minutes at 30° C. The contents were then aspirated onto a Packard Unifilter GF/C filter bottom plate prewet with 0.5% polyethyleneimine. The wells of the polypropylene plate were rinsed and aspirated seven times with a 0.9% saline-0.5% Tween 20 solution. The Unifilter plate was dried, scintillation cocktail was added to each well and the counts representing binding were quantitated in a TopCount scintillation counter.
(§9) For compounds tested, an IC50 binding value was obtained from percent inhibition studies in which various test concentrations were used. The binding value was calculated by linear regression.
(§10) For compounds without an IC50 binding value, the percent inhibition (%) was obtained at a test concentration of ^(1)10 μM, ^(2)1 μM, ^(3)0.2 μM, ^(4)0.003 μM, ^(5) represents an average value.

CB2 receptor [4] = target: T1, CB2 receptor; assay: Binding assay for CB2 ([3H]-CP-55,940 displacement, SK-N-MC membranes); settings: Cannabinoid CB2 Receptor Binding IC50, radioligand CP-55,940 0.2 nM; SK-N-MC membranes
Protocol: as §7, §8, §9, §10

human CB1 receptor [5] = target: T2, human CB1 receptor; assay: Functional cell-based CRE β-gal assay, CB1 (adenylate cyclase activity); settings: single test concentration 10 μM (footnote 1)
Excerpt: as §1, §2, §3, §4, §5, §6
The EC50 value for functional activity for compounds tested was calculated by linear regression and was obtained from studies in which varying compound concentrations were used. Data provided for certain compounds is represented by percent change (%) in functional activity at a single test concentration: ^(1)10 μM and ^(2)1 μM.

| Structure (SMILES) | pEC50 (CB2 receptor [1]) | CB2 receptor change in functional activity (CB2 receptor [2]; one compound concentration) [%] | inhibition at 10 µM (human CB1 receptor [3]) [%] | pIC50 (CB2 receptor [4]) | CB1 receptor percent change in functional activity (human CB1 receptor [5]) | pEC50 (CB2 receptor [2]) | pIC50 (human CB1 receptor [3]; Cannabinoid CB1 Receptor Binding IC50, radioligand CP-55,940 0.2 nM, SK-N-MC membranes) |
| --- | --- | --- | --- | --- | --- | --- | --- |
| O=C(N[C@@H](CO)c1ccccc1)c1n[nH]c2c1CCCCC/C2=C\c1cccc(Cl)c1 [Cpd 31, (9E)-(3-chloro-benzylidene)-4,5,6,7,8,9-hexahydro-1H-cyclooctapyrazole-3-carboxylic acid [(1R)-2-hydroxy-1-phenyl-ethyl]-amide] | 7.74 | – | – | – | – | – | – |
| CC(NC(=O)c1nn(C2CCCC2)c2c1CCCCCC2)C12CC3CC(CC(C3)C1)C2 (stereo not shown) [Cpd 5, 1-cyclopentyl-4,5,6,7,8,9-hexahydro-1H-cyclooctapyrazole-3-carboxylic acid (1-adamantan-1-yl-ethyl)-amide] | – | 29 | 47 | 7.00 | ^(1)10% | – | – |
| CC12CCC(C1)C(C)(C)C2NC(=O)c1nn(C2CCCCC2)c2c1CCCCCC2 (stereo not shown) [Cpd 1, 1-cyclohexyl-4,5,6,7,8,9-hexahydro-1H-cyclooctapyrazole-3-carboxylic acid (1,3,3-trimethyl-bicyclo[2.2.1]hept-2-yl)-amide] | – | – | – | 10.00 and 10.05 | ^(1)−78% | 8.80 | 7.40 |
| O=C(NCC12CC3CC(CC(C3)C1)C2)c1nn(C2CCCC2)c2c1CCCCCC2 [Cpd 3, 1-cyclopentyl-4,5,6,7,8,9-hexahydro-1H-cyclooctapyrazole-3-carboxylic acid (adamantan-1-ylmethyl)-amide] | – | – | 45 | 7.70 | ^(1)−6% | 6.70 | – |
